Measurements taken from ChEMBL document CHEMBL4823295, “Design, synthesis and preliminary bioactivity evaluation of bitopic benzopyranomorpholine analogues as selective dopamine D3 receptor ligands as anti-drug addiction therapeutic agents” (Bioorg Med Chem Lett, 2021).
Active and inactive are the calls of the source. The calls are words filed in the database; no cut-off is given here.

Columns and labels:
D(3) dopamine receptor = D(3) dopamine receptor (Homo sapiens, UniProt P35462); assay: Displacement of [3H]spiperone from human D3 receptor transfected in HEK293 cell membrane measured after 50 mins by competitive radioligand binding analysis; format: cell membranes
Mus musculus [1] = assay: Anti-addiction activity in naloxone-induced withdrawal symptoms in morphine-dependent mouse model assessed as inhibition of naloxone-induced body weight loss at 50 mg/kg, ip administered 60 mins prior to naloxone injection and measured after 2 hrs of naloxone injection; format: functional, organism-based; conditions: time 3.0 hrs
Mus musculus [2] = assay: Anti-addiction activity in naloxone-induced withdrawal symptoms in morphine-dependent mouse model assessed as reduction in diarrhea frequency at 50 mg/kg, ip administered 60 mins prior to naloxone injection and measured for 30 mins after naloxone injection; format: functional, organism-based; conditions: time 90.0 min
D(2) dopamine receptor = D(2) dopamine receptor (Homo sapiens, UniProt P14416); assay: Displacement of [3H]spiperone from human D2 receptor transfected in HEK293 cell membrane measured after 50 mins by competitive radioligand binding analysis; format: cell membranes
Homo sapiens = species on record: Homo sapiens; assay: Selectivity ratio of Ki for human D2 receptor transfected in HEK293 cell membrane to Ki for human D3 receptor transfected in HEK293 cell membrane; format: cell-based
Mus musculus [3] = assay: Anti-addiction activity in naloxone-induced withdrawal symptoms in morphine-dependent mouse model assessed as inhibition of naloxone-induced jumping response at 50 mg/kg, ip administered 60 mins prior to naloxone injection and measured for 30 mins after naloxone injection; format: functional, organism-based; conditions: time 90.0 min
[4] = Toxicity in naloxone-induced withdrawal symptoms in morphine-dependent mouse model assessed as mortality at 50 mg/kg, ip administered 60 mins prior to naloxone injection; format: organism-based; conditions: in vivo, 1 h
[5] = Toxicity in naloxone-induced withdrawal symptoms in morphine-dependent mouse model assessed as convulsions at 50 mg/kg, ip administered 60 mins prior to naloxone injection; format: organism-based; conditions: in vivo, 1 h
Mus musculus [6] = assay: Anti-addiction activity in naloxone-induced withdrawal symptoms in morphine-dependent mouse model assessed as reduction in amount of diarrhea at 50 mg/kg, ip administered 60 mins prior to naloxone injection and measured for 30 mins after naloxone injection; format: functional, organism-based; conditions: time 90.0 min
[7] = Toxicity in naloxone-induced withdrawal symptoms in morphine-dependent mouse model assessed as slow crawling at 50 mg/kg, ip administered 60 mins prior to naloxone injection; format: organism-based; conditions: in vivo, 1 h
[8] = Toxicity in naloxone-induced withdrawal symptoms in morphine-dependent mouse model assessed as inability to bounce at 50 mg/kg, ip administered 60 mins prior to naloxone injection; format: organism-based; conditions: in vivo, 1 h

D(3) dopamine receptor, sequence (P35462 whole entry): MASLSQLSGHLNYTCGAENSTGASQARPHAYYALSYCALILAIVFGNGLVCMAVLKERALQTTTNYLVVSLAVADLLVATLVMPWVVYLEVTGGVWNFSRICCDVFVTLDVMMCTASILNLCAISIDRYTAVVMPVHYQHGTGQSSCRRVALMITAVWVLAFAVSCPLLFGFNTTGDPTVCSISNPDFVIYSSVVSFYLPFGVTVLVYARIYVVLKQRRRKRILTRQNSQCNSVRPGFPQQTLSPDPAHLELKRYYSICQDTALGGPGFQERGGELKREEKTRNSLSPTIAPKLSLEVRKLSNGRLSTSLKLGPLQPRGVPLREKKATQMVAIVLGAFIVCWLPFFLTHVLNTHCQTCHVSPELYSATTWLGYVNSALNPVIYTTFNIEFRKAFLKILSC
D(2) dopamine receptor, sequence (P14416 whole entry): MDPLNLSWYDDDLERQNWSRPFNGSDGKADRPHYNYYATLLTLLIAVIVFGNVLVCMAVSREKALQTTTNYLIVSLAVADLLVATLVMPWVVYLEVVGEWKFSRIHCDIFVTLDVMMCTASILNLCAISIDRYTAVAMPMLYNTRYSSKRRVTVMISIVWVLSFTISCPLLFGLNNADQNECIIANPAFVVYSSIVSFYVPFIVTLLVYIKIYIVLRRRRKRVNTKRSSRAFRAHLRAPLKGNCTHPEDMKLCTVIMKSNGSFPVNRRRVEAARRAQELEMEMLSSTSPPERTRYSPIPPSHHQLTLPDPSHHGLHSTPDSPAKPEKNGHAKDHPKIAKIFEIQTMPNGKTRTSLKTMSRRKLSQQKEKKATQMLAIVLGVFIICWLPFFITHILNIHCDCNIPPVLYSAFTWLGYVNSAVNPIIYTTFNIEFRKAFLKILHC

Compound | Ki (D(3) dopamine receptor) [nM] | Activity (Mus musculus [1]) | Activity (Mus musculus [2]) | Ki (D(2) dopamine receptor) [nM] | Ratio Ki (Homo sapiens) | Activity (Mus musculus [3]) | Activity [4] | Activity [5] | Activity (Mus musculus [6]) | Activity [7] | Activity [8]
O=C(NCCCCN1CCO[C@@H]2c3ccccc3OC[C@@H]21)c1ccc(Cl)cc1 (racemic) | > 1000 | Active | Active |  |  |  |  |  |  |  | 
O=C(NCCCCN1CCO[C@@H]2c3ccccc3OC[C@H]21)c1ccc([N+](=O)[O-])cc1 (racemic) | 33.9 | Active | Active | 962 | 28 | Active |  |  |  |  | 
COc1ccc2c(c1)[C@H]1OCCN(CCCCNC(=O)c3ccc(-c4ccccc4)cc3)[C@@H]1CO2 (racemic) | 18.4 | Active |  | 1060 | 58 |  |  |  |  |  | 
O=C(NCCCCN1CCO[C@@H]2c3ccccc3OC[C@H]21)c1ccco1 (racemic) | 11.7 | Active |  | 853 | 73 |  | Toxic | Toxic |  |  | 
COc1ccc2c(c1)[C@H]1OCCN(CCCCNC(=O)c3ccccc3)[C@@H]1CO2 (racemic) | 13.8 | Active | Active | 568 | 41 |  |  |  |  |  | 
CCCN1CCO[C@@H]2c3cc(O)ccc3OC[C@H]21 | 1.82 |  |  | 43 | 23 |  |  |  |  |  | 
COc1ccc2c(c1)[C@H]1OCCN(CCCCNC(=O)c3ccco3)[C@@H]1CO2 (racemic) | 5.2 | inactive |  | 923 | 177 | Active |  |  |  |  | 
O=C(NCCCCN1CCO[C@@H]2c3ccccc3OC[C@H]21)C1CCCCC1 (racemic) | 63.8 | Active |  | 728 | 11 | Active |  |  |  |  | 
COc1ccc2c(c1)[C@H]1OCCN(CCCCNC(=O)c3ccc(Cl)cc3)[C@@H]1CO2 (racemic) | 12.9 |  |  | 967 | 75 |  | Toxic |  |  |  | 
COc1ccc2c(c1)[C@H]1OCCN(CCCCNC(=O)c3cccc4ccccc34)[C@@H]1CO2 (racemic) | 19.8 | Active |  | 861 | 43 |  |  |  | Active |  | 
O=C(NCCCCN1CCO[C@@H]2c3ccccc3OC[C@H]21)c1cccs1 (racemic) | 18.5 | Active | Active | 417 | 23 |  |  |  |  |  | 
O=C(NCCCCN1CCO[C@@H]2c3ccccc3OC[C@@H]21)c1cccs1 (racemic) | > 1000 | inactive |  |  |  |  |  |  |  |  | 
O=C(NCCCCN1CCO[C@@H]2c3ccccc3OC[C@H]21)c1cc2ccccc2[nH]1 (racemic) | 10.5 | Active |  | 785 | 75 | Active |  |  |  |  | 
O=C(NCCCCN1CCO[C@@H]2c3ccccc3OC[C@@H]21)c1ccc(-c2ccccc2)cc1 (racemic) | > 1000 | inactive |  |  |  |  |  |  |  |  | 
COc1ccc2c(c1)[C@H]1OCCN(CCCCNC(=O)c3cc(OC)c(OC)c(OC)c3)[C@@H]1CO2 (racemic) | 1.23 |  |  | 962 | 782 |  |  | Toxic |  | Toxic | Toxic
O=C(NCCCCN1CCO[C@@H]2c3ccccc3OC[C@H]21)c1ccc(Cl)cc1 (racemic) | 17.8 | Active |  | 473 | 27 |  |  |  | Active |  | 
COc1ccccc1C(=O)NCCCCN1CCO[C@@H]2c3ccccc3OC[C@H]21 (racemic) | 12.9 |  |  | 863 | 67 |  |  |  |  |  | 

Compound | Ki (D(3) dopamine receptor) [nM] | Activity (Mus musculus [1]) | Activity (Mus musculus [2]) | Ki (D(2) dopamine receptor) [nM] | Ratio Ki (Homo sapiens) | Activity (Mus musculus [3]) | Activity [4] | Activity [5] | Activity (Mus musculus [6]) | Activity [7] | Activity [8]
O=C(NCCCCN1CCO[C@@H]2c3ccccc3OC[C@H]21)c1ccc(-c2ccccc2)cc1 (racemic) | 43.8 | Active |  | 1020 | 23 | Active |  |  |  |  | 
COc1ccc2c(c1)[C@H]1OCCN(CCCCNC(=O)c3cccs3)[C@@H]1CO2 (racemic) | 6.58 |  |  | 803 | 122 |  |  | Toxic |  | Toxic | Toxic
COc1ccc(C(=O)NCCCCN2CCO[C@@H]3c4cc(OC)ccc4OC[C@H]32)cc1 (racemic) | 1.08 | Active |  | 697 | 645 | Active |  |  | Active |  | 
O=C(NCCCCN1CCO[C@@H]2c3ccccc3OC[C@H]21)c1cccc(Cl)c1 (racemic) | 23.6 | Active | Active | 663 | 28 |  |  |  |  |  | 
O=C(NCCCCN1CCO[C@@H]2c3ccccc3OC[C@H]21)c1ccc2ccccc2c1 (racemic) | 13.7 | Active |  | 723 | 53 |  |  |  | Active |  | 
O=C(NCCCCN1CCO[C@@H]2c3ccccc3OC[C@H]21)c1cccc2ccccc12 (racemic) | 15.8 | Active |  | 563 | 36 | Active |  |  |  |  | 
COc1cc(C(=O)NCCCCN2CCO[C@@H]3c4ccccc4OC[C@H]32)cc(OC)c1OC (racemic) | 6.8 | inactive |  | 708 | 104 |  |  |  |  |  | 
COc1ccc(C(=O)NCCCCN2CCO[C@@H]3c4ccccc4OC[C@H]32)cc1 (racemic) | 7.5 | Active | Active | 568 | 76 | Active |  |  |  |  | 
COc1ccc2c(c1)[C@H]1OCCN(CCCCNC(=O)c3cccc(Cl)c3)[C@@H]1CO2 (racemic) | 26.6 | inactive |  | 785 | 30 | Active |  |  |  |  | 
COc1ccc2c(c1)[C@H]1OCCN(CCCCNC(=O)c3ccc(Br)cc3)[C@@H]1CO2 (racemic) | 8.6 | Active |  | 958 | 111 |  |  |  |  |  | 
COc1ccc2c(c1)[C@H]1OCCN(CCCCNC(=O)c3ccc([N+](=O)[O-])cc3)[C@@H]1CO2 (racemic) | 13.9 | Active |  | 589 | 42 | Active |  |  |  |  | 
COc1ccc2c(c1)[C@H]1OCCN(CCCCNC(=O)c3cc4ccccc4[nH]3)[C@@H]1CO2 (racemic) | 0.97 | Active |  | 732 | 755 |  |  |  | Active |  | 
COc1ccc2c(c1)[C@H]1OCCN(CCCCNC(=O)c3ccc4ccccc4c3)[C@@H]1CO2 (racemic) | 19.9 | Active |  | 642 | 32 |  |  |  |  |  | 
COc1ccc2c(c1)[C@H]1OCCN(CCCCNC(=O)c3cccnc3)[C@@H]1CO2 (racemic) | 9.16 |  |  | 744 | 81 |  |  | Toxic |  | Toxic | Toxic
O=C(NCCCCN1CCO[C@@H]2c3ccccc3OC[C@H]21)c1ccc(Br)cc1 (racemic) | 13.5 | inactive |  | 897 | 66 |  |  |  |  |  | 
COc1ccc2c(c1)[C@H]1OCCN(CCCCNC(=O)C3CCCCC3)[C@@H]1CO2 (racemic) | 33.6 | Active |  | 688 | 21 | Active |  |  | Active |  | 
O=C(NCCCCN1CCO[C@@H]2c3ccccc3OC[C@H]21)c1ccccc1 (racemic) | 72 | Active |  | 776 | 11 | Active |  |  |  |  | 
